Measured values: patent publication US7772252B2, “Heterocyclic substituted carbonyl derivatives and their use as dopamine D3 receptor ligands” (Aventis Pharmaceuticals Inc., priority 2001, dated 2010)

molecular target: T1, cloned human alpha-1A adrenergic receptors (α1a) (Homo sapiens, UniProt P35348); experiment: [3H]Prazosin binding to cloned human alpha-1A adrenergic receptors expressed in CHO cells; settings: read-out: halpha1Ki (nM) h = human
T1 construct: expressed in transfected cells; membranes
T1 sequence (P35348 1-466): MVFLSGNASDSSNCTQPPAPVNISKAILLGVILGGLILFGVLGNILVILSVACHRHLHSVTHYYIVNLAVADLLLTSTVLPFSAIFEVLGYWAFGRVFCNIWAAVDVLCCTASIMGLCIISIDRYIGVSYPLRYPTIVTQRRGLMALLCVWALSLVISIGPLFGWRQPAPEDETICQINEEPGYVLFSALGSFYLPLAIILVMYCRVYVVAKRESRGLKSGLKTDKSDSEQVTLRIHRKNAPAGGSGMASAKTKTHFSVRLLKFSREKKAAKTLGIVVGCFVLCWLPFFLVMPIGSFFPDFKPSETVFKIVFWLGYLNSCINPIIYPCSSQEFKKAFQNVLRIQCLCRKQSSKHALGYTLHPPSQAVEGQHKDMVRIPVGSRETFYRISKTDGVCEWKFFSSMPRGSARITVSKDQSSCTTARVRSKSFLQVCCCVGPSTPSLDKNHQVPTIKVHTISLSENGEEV
Description: ^3H]Prazosin Binding to Cloned Human Alpha-1A Adrenergic Receptors (α1a) Expressed in Chinese Hamster Ovary Cells (CHO)
• Purpose: This in vitro assay is designed as a screen to identify compounds displaying a affinity for the human α1a adrenoceptor subtype expressed in the membrane fragments of CHO cells. The assay measures the ability of the test compounds to displace [^3H] prazosin from α1a sites. • The identification of multiple vascular α1-addrenoceptors (α1a, α1b, α1d) in vitro has provided impetus to define the role(s) of these subtypes in cardiovascular regulation in vivo (Vargas and Gorman, 1995). […] Prazosin is a potent antagonist of the human α1a-adrenoceptor subtype, which has been cloned and is expressed in the membrane fragments of CHO cells. • hα1a receptor: The cloning of the human α1a cDNA was accomplished first by screening a human prostate cDNA library (Clontech), from which a portion of the coding region was obtained. This DNA fragment was then used to screen a human leukocyte genomic library (Clontech), and the rest of the coding sequence was obtained. Later these two fragments were spliced together. The entire coding sequence was then fully sequenced including matching PCR sequence with original genomic coding sequence, thus ensuring splice sites were joined correctly (Schwinn et al., 1995). Once sequenced, the gene was subcloned into the expression vector pcDNA3 (Invitrogen). Plasmid DNA was then used for transfection into CHO cells and G418 resistant clones were isolated. A clone expressing high levels of the hα1a receptor (as determined by mRNA and receptor binding data) was chosen and pharmacologically characterized. • Culture Media Ingredients for Adherent α1a expressing CHO Culture: • A. HAM's F-12 (Celigro) • B. 10% 0.2 micron filtered Fetal Bovine Serum (FBS)(Celigro) • C. 1% 0.2 micron filtered Penicillin-Streptomycin (Celigro) • D. G418 0.2 micron filtered (Geneticin 400 μg/ml)(Celigro) • Cells are cultured using established methods and procedures in either 150×25 mm culture plates (scale up to 100 plates) or a combination of these plates and 70 roller bottles. One culturing/harvest cycle typically requires 2 weeks and yields between 100-400 mg protein. Plates or bottles are incubated at 37° C.+5% CO2. • Storage: Cells are harvested by mechanical scraping, washed using PBS, collected in 250 ml Corning polypropylene centrifuge tubes, spun down (1500 RPM) and resuspended in dH2O 10% DMSO (final volume per harvest is approximately 50 ml). Protein determination is made using the Biorad DC Assay Kit. Finally, the appropriate volume is aliquoted into a 2 ml Corning Cryovial (10 mg/1-1.5 ml) which is stored at −80° C.
• Assay Requirement: 0.5 cryovials per 96 well plate (assay volume=200 μl/well) • [^3H]-Ligand: [7-methoxy-^3H]-Prazosin: 1.0 nM (NEN, NET-823) • 70-87 Ci/mmol • Materials: Phentolamine mesylate (Research Biochemicals Int. #P-131) • 96 well flat bottom plates (Beckman) • Unifilter GF/B Plate (Packard) • Polyethylenimine (Sigma #P-3134) • TomTec or Packard Filtermate 196 Cell Harvesters • Packard TopCount Scintillation Counter • Buffers: A: 50 mM Tris HCl; 0.1% ascorbate, pH 7.7 (incubation buffer) • B: 50 mM Tris HCl; pH 7.7 (wash buffer) • Procedure: Assay additions are as follows (in the order indicated): • Total Binding=50 μl buffer A+50 μl [^3H]prazosin+100 μl membrane • Nonsp. Bd.=50 μl 10 μM phentolamine+50 μl [^3H]prazosin+100 μl membrane • Test Cpd.=50 μl compound+50 μl [^3H]prazosin+100 μl membrane • Compounds to be evaluated are weighed out to yield a 10 mM stock solution in DMSO in a 24 well polystyrene plate. This is diluted to a 0.5 mM stock in dH2O, Serial dilutions in Buffer A are made from which 50 μl additions to the plate are made in duplicate in order to achieve the final concentrations desired. Typically, one 96 well plate is used to evaluate 11 compounds at 4 concentrations (10^−6-10^−9 M) in duplicate. Total binding and nonspecific binding are determined in quadruplicate. […]

Row | Structure (SMILES) | Ki [nM]
1 | CC1CCCC(NC(=O)CCCN2CCN(c3csc4cc(C(F)(F)F)ccc34)CC2)C1 (racemic) [compound 826807] | 166000
2 | O=C(CCCN1CCN(c2csc3cc(F)ccc23)CC1)NC1CCCC1 (racemic) [compound 826860] | 0.516
3 | CN(C(=O)CCCN1CCN(c2csc3cc(C(F)(F)F)ccc23)CC1)C1CCCCC1 [compound 826808] | 126
4 | O=C(CCCN1CCN(c2csc3cc(C(F)(F)F)ccc23)CC1)N(CCO)C1CCCCC1 [compound 826810] | 200
5 | CCOC(=O)C1CCN(C(=O)CCCN2CCN(c3csc4cc(C(F)(F)F)ccc34)CC2)CC1 [compound 826811] | 223
6 | O=C(CCCN1CCN(c2csc3cc(C(F)(F)F)ccc23)CC1)N1CCC(O)CC1 [compound 826812] | 658
7 | CC1CCCCN1C(=O)CCCN1CCN(c2csc3cc(C(F)(F)F)ccc23)CC1 (stereo not drawn) [compound 826813] | 57
8 | CC1CCN(C(=O)CCCN2CCN(c3csc4cc(C(F)(F)F)ccc34)CC2)CC1 [compound 826814] | 89.3
9 | CC1CCCN(C(=O)CCCN2CCN(c3csc4cc(C(F)(F)F)ccc34)CC2)C1 (stereo not drawn) [compound 826815] | 80.5
10 | O=C(CCCN1CCN(c2csc3cc(C(F)(F)F)ccc23)CC1)N1CCCC1 [compound 826819] | 49
11 | CC1CCCN1C(=O)CCCN1CCN(c2csc3cc(C(F)(F)F)ccc23)CC1 (stereo not drawn) [compound 826822] | 32.2
12 | CC[C@H]1CC[C@H](NC(=O)CCCN2CCN(c3csc4cc(F)ccc34)CC2)CC1 [compound 826846] | 93.9
13 | CN(C(=O)CCCN1CCN(c2csc3cc(F)ccc23)CC1)C1CCCCC1 [compound 826848] | 12.3
14 | CCN(C(=O)CCCN1CCN(c2csc3cc(F)ccc23)CC1)C1CCCCC1 [compound 826849] | 35.2
15 | O=C(CCCN1CCN(c2csc3cc(F)ccc23)CC1)N(CCO)C1CCCCC1 [compound 826850] | 28.4
16 | CCOC(=O)C1CCN(C(=O)CCCN2CCN(c3csc4cc(F)ccc34)CC2)CC1 [compound 826851] | 18.9
17 | O=C(CCCN1CCN(c2csc3cc(F)ccc23)CC1)N1CCC(O)CC1 [compound 826852] | 6.16
18 | O=C(CCCN1CCN(c2csc3cc(F)ccc23)CC1)N1CCC(N2CCCC2)CC1 [compound 826856] | 15.3
19 | CC1CC(C)CN(C(=O)CCCN2CCN(c3csc4cc(F)ccc34)CC2)C1 (stereo not drawn) [compound 826858] | 9.42
20 | O=C(CCCN1CCN(c2csc3cc(F)ccc23)CC1)NC1CCCCC1 [compound 826861] | 9.55
21 | CC1CCCN1C(=O)CCCN1CCN(c2csc3cc(F)ccc23)CC1 (stereo not drawn) [compound 826862] | 0.637

Further compounds by falling Ki, results first:

Row | Ki [nM] | Structure (SMILES)
22 | 1280 | O=C(CCCN1CCN(c2csc3cc(C(F)(F)F)ccc23)CC1)NC1CCCCC1 [compound 826821]
23 | 249 | O=C(CCCN1CCN(c2csc3cc(C(F)(F)F)ccc23)CC1)N1CCC(N2CCCC2)CC1 [compound 826816]
24 | 148 | CN(C)C1CCN(C(=O)CCCN2CCN(c3csc4cc(C(F)(F)F)ccc34)CC2)C1 (stereo not drawn) [compound 826823]
25 | 129 | O=C(CCCN1CCN(c2csc3cc(C(F)(F)F)ccc23)CC1)NC1CCCC1 [compound 826820]
26 | 124 | CC1CC(C)CN(C(=O)CCCN2CCN(c3csc4cc(C(F)(F)F)ccc34)CC2)C1 (stereo not drawn) [compound 826818]
27 | 23.4 | C[C@H]1CC[C@H](NC(=O)CCCN2CCN(c3csc4cc(F)ccc34)CC2)CC1 [compound 826844]
28 | 5.44 | CCOC(=O)[C@H]1CC[C@H](NC(=O)CCCN2CCN(c3csc4cc(F)ccc34)CC2)CC1 [compound 826845]
29 | 4 | O=C(CCCN1CCN(c2csc3cc(F)ccc23)CC1)N1CCCC1 [compound 826859]
30 | 0.889 | CC1CCCN(C(=O)CCCN2CCN(c3csc4cc(F)ccc34)CC2)C1 (stereo not drawn) [compound 826855]
31 | 0.513 | CC1CCCC(NC(=O)CCCN2CCN(c3csc4cc(F)ccc34)CC2)C1 (stereo not drawn) [compound 826847]
32 | 0.258 | CC1CCCCN1C(=O)CCCN1CCN(c2csc3cc(F)ccc23)CC1 (stereo not drawn) [compound 826853]
33 | 0.0713 | CC1CCN(C(=O)CCCN2CCN(c3csc4cc(F)ccc34)CC2)CC1 [compound 826854]
